Active and inactive are the calls of the source. No cut-off for these calls is given here.
Legend:
Platelet [1] = assay: Inhibition of U46619-induced platelet aggregation in rabbit platelet-rich plasma at 100 ug/mL by turbidimetric method; assay type: functional, cell-free; settings: Oryctolagus cuniculus
Platelet [2] = assay: Inhibition of thrombin-induced platelet aggregation in rabbit platelet-rich plasma at 100 ug/mL by turbidimetric method; assay type: functional, cell-free; settings: Oryctolagus cuniculus
Platelet [3] = assay: Inhibition of ionomycin-induced platelet aggregation in rabbit platelet-rich plasma at 100 ug/mL by turbidimetric method; assay type: functional, cell-free; settings: Oryctolagus cuniculus
Platelet [4] = assay: Inhibition of U46619-induced platelet aggregation in rabbit platelet-rich plasma by turbidimetric method; assay type: functional, cell-free; settings: Oryctolagus cuniculus
P388 = assay: Cytotoxicity against mouse P388 cells by MTT assay; assay type: functional

Structure (SMILES) | Activity (Platelet [1]) | Activity (Platelet [2]) | Activity (Platelet [3]) | IC50 (Platelet [4]) | Activity (P388)
CCCCCCCCCCCCCC(=O)OC[C@@H](O)COP(=O)([O-])OCC[N+](C)(C)C | Active | Active | Active | – | –
CCCCCCCCCCCCCCCC(=O)OC[C@@H](O)CO[C@@H]1O[C@H](CO)[C@H](O)[C@H](O)C1O (single isomer, unassigned) | Active | inactive | inactive | 60 µM | >50 µg/mL
